Test system: T1, laccase from Marasmius sp. BBKAV79
T1 construct: gene benzenediol:oxygen oxidoreductase; native extracellular enzyme purified from culture supernatant (ammonium sulfate, Sephadex G-100, DEAE-cellulose); monomer, ~75 kDa by native PAGE
Assay: absorbance at […] nm, Lineweaver-Burk plot
Format: biochemical
Settings: 100 mM sodium acetate buffer pH 5.5; guaiacol 0.18-10 mM; free enzyme
Source text: BBKAV79 | K m and V max of purified laccase from Marasmius sp.

For `COc1ccccc1O` [guaiacol], the Km was 3.03 mM.

Source: PMC5010537, “Purification and characterization of laccase from Marasmius species BBKAV79 and effective decolorization of selected textile dyes” (3 Biotech, 2016)
